Among the data in patent US6921777B2, “Heteroethynylenic compounds and pharmaceutical and cosmetic compositions containing them” (Galderma Research & Development, S.N.C., priority 1998, dated 2005) are inhibition and IC50 values, retold here.

The target of this test is T1, RXRalpha (Homo sapiens, UniProt P19793).
T1 construct: expressed in transfected cells; host or cells: Cos7 monkey kidney cells
T1 sequence (P19793 1-462): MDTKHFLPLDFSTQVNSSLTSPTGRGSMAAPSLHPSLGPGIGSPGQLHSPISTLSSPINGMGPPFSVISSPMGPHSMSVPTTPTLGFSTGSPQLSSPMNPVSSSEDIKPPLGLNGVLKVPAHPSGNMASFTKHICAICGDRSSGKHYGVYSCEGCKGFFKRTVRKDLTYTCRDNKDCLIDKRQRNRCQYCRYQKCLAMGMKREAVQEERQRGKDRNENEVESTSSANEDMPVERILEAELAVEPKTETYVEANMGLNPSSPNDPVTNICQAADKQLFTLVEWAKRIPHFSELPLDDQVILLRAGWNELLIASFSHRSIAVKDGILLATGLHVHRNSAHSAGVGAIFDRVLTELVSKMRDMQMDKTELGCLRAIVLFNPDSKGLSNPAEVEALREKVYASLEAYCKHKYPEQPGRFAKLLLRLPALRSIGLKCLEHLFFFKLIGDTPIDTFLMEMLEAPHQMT
The experiment in a line: RXR antagonist transactivation test (cotransfection pSG5-RXRalpha / CRBPII-tk-Luc, luciferase). The test is classed as cell-based. The following applies: Cos7 cells; for inhibition at 1 µM: COS-7, test compound at 10^−6M final, 3 nM reference agonist, treatment 18 h, luciferase activity, read-out: % of inhibition of the induction obtained with the agonist alone; for IC50: in the presence of 3 nM agonist 6-[1-(3,5,5,8,8-pentamethyl-5,6,7,8-tetrahydro-2-naphthalenyl)cyclopropyl]nicotinic acid, 5 concentrations 10^−5 to 10^−9 M, read-out: IC50 (dose required to achieve 50% inhibition of the agonist activity). An excerpt:
a) Determination of the IC50 values of the antagonist compounds
The dose-response curve obtained makes it possible to determine the IC50 value which is specific to the compound.
b) Test of RXR Antagonist Transactivation
The properties of inhibition of the activation of the RXR response elements (RXRE) can be determined by recognized methods of the art.
The receptor expression plasmid pSG5-RXRalpha and the reporter plasmid CRBPII-tk-Luc are introduced into the Cos7 monkey kidney cell line by the method of coprecipitation with calcium phosphate described in Molecular Cloning: A laboratory manual (Sambrook et al. eds. Cold Spring Harbor Lab. Publ. 1989). […] The test compound is added at 10^−6M final. After treatment for 18 h, the cells are rinsed with PBS and lysed in 0.1M KPO4 (pH 7.8), 1.0% Triton X100, 1.0 mM DTT, 1 mM EDTA. The luciferase activity of the cell lysatesis measured as described by deWet et al. in Mol. Cell. Biol. 7:725 (1987).

A word on the inhibition: it is the drop in the measured response relative to a control, in per cent. A word on the IC50: it is the concentration needed to halve the response being measured. As for `COCOc1cc([Se]C#CC(C)=CC(=O)O)cc2c1C(C)(C)CCC2(C)C` [EXAMPLE 14, 5-(4-Methoxymethoxy-5,5,8,8-tetramethyl-5,6,7,8-tetrahydronaphthalen-2-ylselenyl)-3-methylpent-2-en-4-ynoic Acid], the inhibition at 1 µM stood at 61% and the IC50 came out at 471 nM.

Turning to `CCCOc1cc2c(cc1[Se]C#CC(C)=CC(=O)O)C(C)(C)CCC2(C)C` [EXAMPLE 10, 3-Methyl-5-(5,5,8,8-tetramethyl-3-propoxy-5,6,7,8-tetrahydronaphthalen-2-ylselenyl)pent-2-en-4-ynoic Acid], the inhibition at 1 µM was found to be 57% and the IC50 was 671 nM.

As for `CCCOc1cc([Se]C#CC(C)=CC(=O)O)cc2c1C(C)(C)CCC2(C)C` [EXAMPLE 12, 3-Methyl-5-(5,5,8,8-tetramethyl-4-propoxy-5,6,7,8-tetrahydronaphthalen-2-ylselenyl)pent-2-en-4-ynoic Acid], the inhibition at 1 µM came out at 92% and the IC50 worked out at 71 nM.
